Experimental data: patent US20250332173A1, “COMPOUNDS AND METHODS FOR MODULATING NUCLEIC ACID SPLICING” (REMIX THERAPEUTICS INC., priority 2021, published 2025)
pIC50: −log10 of the molar value. Read-outs that look alike come from different tables or passages of the source.

Tests used:
HTT mRNA = assay: RT-qPCR splicing assay, HTT canonical junction (CJ) and alternative junction (AJ) mRNA; format: cell-based, human; details: Homo sapiens; for AC50: increase in HTT alternative junction (AJ) mRNA, read-out: HTT AJ AC50
Summary of the method: (§1)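 24 h treatment, 37 °C/5% CO2; A673 or K562; 11-pt 3-fold series, top 10 uM final; DMSO ≤0.25%. Cell lysis with DNase I, then 1-step RT-qPCR. Housekeeping normalization: PPIA (A673), GAPDH or GUSB (K562).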

MYB mRNA = assay: RT-qPCR splicing assay, MYB canonical junction (CJ) and alternative junction (AJ) mRNA; format: cell-based, human; details: Homo sapiens; for AC50: increase in MYB alternative junction (AJ) mRNA, read-out: MYB AJ AC50
Summary of the method: as §1

SMN2 mRNA = assay: RT-qPCR splicing assay, SMN2 canonical junction (CJ) mRNA; format: cell-based, human; details: Homo sapiens; canonical junction qPCR panel, Table 5; read-out: SMN2 (decrease in CJ mRNA levels, IC50)
Summary of the method: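 Canonical exon-exon junction transcript levels measured by one-step RT-qPCR of cell lysates, normalized to a housekeeping gene (GAPDH, GUSB or PPIA). Cells used were A673 or K562, exposed for 24 h to compound in 11-point, 3-fold series from 10 uM, with final DMSO at or below 0.25%.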

Target C = assay: HiBiT protein abundance assay, Target C HiBiT K562 cell line; format: cell-based; details: Homo sapiens; HiBiT lytic detection, modified K562 cells, 24 hours, top dose 10 μM; read-out: Effect on protein abundance, Target C (IC50)
Summary of the method: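 Knock-in K562 cells carrying HiBiT-tagged Target C, 10,000 per well, treated 24 h at 37 °C with 10-point threefold dilutions (top 10 μM final, ≤0.25% DMSO). Lytic HiBiT luminescence read; response normalised to unmodified K562 and DMSO controls, four-parameter fit interpolated at 50% for IC50.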

[1] = decrease in HTT canonical junction (CJ) mRNA, RT-qPCR, read-out: HTT CJ IC50
[2] = canonical junction qPCR panel, Table 5, read-out: HTT (decrease in CJ mRNA levels, IC50)
[3] = canonical junction qPCR panel, Table 5, read-out: MYB (decrease in CJ mRNA levels, IC50)
[4] = decrease in MYB canonical junction (CJ) mRNA, RT-qPCR, read-out: MYB CJ IC50

Row | Structure (SMILES) | pIC50 (HTT mRNA; [1]) | AC50 (HTT mRNA; RT-qPCR) | pIC50 (HTT mRNA; [2]) | pIC50 (MYB mRNA; [3]) | pIC50 (MYB mRNA; [4]) | AC50 (MYB mRNA; RT-qPCR) | pIC50 (SMN2 mRNA) | pIC50 (Target C)
1 | Cc1cn2nc(-c3ccc4c(=O)n(C5CCN(CCF)C6(CC6)C5)ncc4n3)cc(C)c2n1 (centres unmarked) [Compound 1542, 2-(2,8-dimethylimidazo[1,2-b]pyridazin-6-yl)-6-[4-(2-fluoroethyl)-4-azaspiro[2.5]octan-7-1]pyrido[2,3-d]pyridazin-5-one] | 6.00 to 7.00 | 0.1 to 1 µM | 6.00 to 7.00 | 5.00 to 6.00 | 5.00 to 6.00 | 1 to 10 µM | 6.00 to 7.00 | 6.00 to 7.00
2 | Cc1cn2nc(-n3cnc4ccc(N5CCNCC5)cc4c3=O)cc(C)c2n1 [Compound 2201] | < 5.00 | > 10 µM | < 5.00 | < 5.00 | < 5.00 | > 10 µM | < 5.00 | < 5.00
3 | Cc1cn2nc(-c3ccc4c(=O)n([C@@H]5CCN(C)C6(CC6)C5)ncc4n3)cc(C)c2n1 [Compound 1534] | > 7.00 | < 0.1 µM | > 7.00 | 6.00 to 7.00 | > 7.00 | 0.1 to 1 µM | > 7.00 | > 7.00
4 | CCN1CC[C@H](n2ncc3nc(-c4cc(C)c5nc(C)cn5n4)ccc3c2=O)CC12CC2 [Compound 1531] | 6.00 to 7.00 | < 0.1 µM | > 7.00 | 6.00 to 7.00 | 6.00 to 7.00 | 0.1 to 1 µM | > 7.00 | 6.00 to 7.00
5 | Cn1cc2cc(-c3ncc4c(=O)n(C56CCC(N)(CC5)C6)ccc4n3)c(O)cc2n1 [Compound 1470] | < 5.00 | 1 to 10 µM | 5.00 to 6.00 | 6.00 to 7.00 | 6.00 to 7.00 | 0.1 to 1 µM | > 7.00 | 5.00 to 6.00
6 | Cc1c(O)c(-c2ncc3c(=O)n([C@@H]4CC[C@H](N)C4)ccc3n2)cc2cn(C)nc12 [Compound 1477] | 6.00 to 7.00 | < 0.1 µM | > 7.00 | > 7.00 | > 7.00 | < 0.1 µM | > 7.00 | 6.00 to 7.00
7 | Cc1c(O)c(-c2ccc3c(=O)n(C4CCNC4)cc(C)c3n2)cc2cn(C)nc12 (centres unmarked) [Compound 1467] | < 5.00 | 1 to 10 µM | 5.00 to 6.00 | 6.00 to 7.00 | 6.00 to 7.00 | 0.1 to 1 µM | > 7.00 | 5.00 to 6.00
8 | Cc1cn2nc(-c3ccc4c(=O)n(C5CCNC6(CCC6)C5)ncc4n3)cc(C)c2n1 (centres unmarked) [Compound 1553] | 5.00 to 6.00 | 0.1 to 1 µM | 6.00 to 7.00 | 5.00 to 6.00 | 5.00 to 6.00 | 1 to 10 µM | 6.00 to 7.00 | 5.00 to 6.00
9 | Cc1cn2cc(-n3cnc4ccc(N5CCN(C)CC5)cc4c3=O)cc(F)c2n1 [Compound 2197] | 5.00 to 6.00 | 1 to 10 µM | 5.00 to 6.00 | 5.00 to 6.00 | 5.00 to 6.00 | 1 to 10 µM | 5.00 to 6.00 | 5.00 to 6.00
10 | Cc1cn2nc(-c3ccc4c(=O)n(C5CC(C)N[C@H](C)C5)ncc4n3)cc(C)c2n1 (stereo in doubt) [Compound 1536, 2-(2,8-dimethylimidazo[1,2-b]pyridazin-6-yl)-6-[(2S,6R)-2,6-dimethyl-4-piperidyl]pyrido[2,3-d]pyridazin-5-one] | 6.00 to 7.00 | 0.1 to 1 µM | 6.00 to 7.00 | 6.00 to 7.00 | 6.00 to 7.00 | 0.1 to 1 µM | > 7.00 | 6.00 to 7.00
